The source of these data is patent US11053253B2, “Macrocyclic compounds for treatment of medical disorders” (Achillion Pharmaceuticals, Inc., priority 2017, dated 2021).

For the data set the following is noted: rcm bond; 20-membered ring; Grubbs II; toluene; 1.6 mM; 80.0 °C.

For “(4^1R,4^3S,4^5S,Z)-1^3-acetyl-N-(6-bromo-3-methylpyridin-2-yl)-3,14-dioxo-1^1H-6-oxa-4^2,13,15-triaza-1(1,6)-indazola-4(2,5)-bicyclo[3.1.0]hexanacyclopentadecaphan-8-ene-43-carboxamide”, the ring closure, yield after HPLC was determined as 2.1%.
